Laboratory results from ChEMBL document CHEMBL3797105, “Investigation of triazole-linked indole and oxindole glycoconjugates as potential anticancer agents: novel Akt/PKB signaling pathway inhibitors” (Medchemcomm, 2016).

System: not listed separately
Assay: Cytotoxicity against human DU145 cells after 48 hrs by sulforhodamine B assay
Format: functional, cell-based
Settings: DU-145, 48 h
`CC(=O)OC[C@H]1O[C@@H](n2cc(CN3C(=O)/C(=C/c4ccc5ccccc5c4)c4ccccc43)nn2)[C@H](OC(C)=O)[C@@H](OC(C)=O)[C@@H]1OC(C)=O` showed an IC50 of 43.7 µM. In the case of `O=C(/C=C/c1c[nH]c2ccccc12)c1ccccc1`, the IC50 is reported as > 200 µM. For `CCC/C=C1/C(=O)N(Cc2cn([C@@H]3O[C@H](COC(C)=O)[C@@H](OC(C)=O)[C@H](OC(C)=O)[C@H]3OC(C)=O)nn2)c2ccccc21`, the IC50 was 19.7 µM. In the case of `CC(=O)OC[C@H]1O[C@@H](n2cc(CN3C(=O)/C(=C\c4ccc(C)cc4)c4ccccc43)nn2)[C@H](OC(C)=O)[C@@H](OC(C)=O)[C@@H]1OC(C)=O`, the IC50 is reported as 9.4 µM. Work on `CC(=O)OC[C@H]1O[C@@H](n2cc(CN3C(=O)/C(=C\c4ccco4)c4ccccc43)nn2)[C@H](OC(C)=O)[C@@H](OC(C)=O)[C@@H]1OC(C)=O` yielded an IC50 of 16.9 µM. `CC(=O)OC[C@H]1O[C@@H](n2cc(Cn3cc(C(C)=O)c4ccccc43)nn2)[C@H](OC(C)=O)[C@@H](OC(C)=O)[C@@H]1OC(C)=O` showed an IC50 of 75.2 µM. With `CC(=O)OC[C@H]1O[C@@H](n2cc(Cn3cc([N+](=O)[O-])c4ccccc43)nn2)[C@H](OC(C)=O)[C@@H](OC(C)=O)[C@@H]1OC(C)=O` the IC50 was 60.9 µM. With `CC(=O)OC[C@H]1O[C@@H](n2cc(CN3C(=O)/C(=C/C=C/c4ccccc4)c4ccccc43)nn2)[C@H](OC(C)=O)[C@@H](OC(C)=O)[C@@H]1OC(C)=O` the IC50 was 17.1 µM.

System: A549
Assay: Cytotoxicity against human A549 cells after 48 hrs by sulforhodamine B assay
Format: functional, cell-based
Settings: A549, 48 h
For `CC(=O)OC[C@H]1O[C@@H](n2cc(CN3C(=O)/C(=C/c4ccc5ccccc5c4)c4ccccc43)nn2)[C@H](OC(C)=O)[C@@H](OC(C)=O)[C@@H]1OC(C)=O`, the IC50 was 30.9 µM. With `O=C(/C=C/c1c[nH]c2ccccc12)c1ccccc1` the IC50 was > 200 µM. In the case of `CCC/C=C1/C(=O)N(Cc2cn([C@@H]3O[C@H](COC(C)=O)[C@@H](OC(C)=O)[C@H](OC(C)=O)[C@H]3OC(C)=O)nn2)c2ccccc21`, the IC50 is reported as 24.1 µM. Work on `CC(=O)OC[C@H]1O[C@@H](n2cc(CN3C(=O)/C(=C\c4ccc(C)cc4)c4ccccc43)nn2)[C@H](OC(C)=O)[C@@H](OC(C)=O)[C@@H]1OC(C)=O` yielded an IC50 of 16.5 µM. `CC(=O)OC[C@H]1O[C@@H](n2cc(CN3C(=O)/C(=C\c4ccco4)c4ccccc43)nn2)[C@H](OC(C)=O)[C@@H](OC(C)=O)[C@@H]1OC(C)=O` showed an IC50 of 41.1 µM. In the case of `CC(=O)OC[C@H]1O[C@@H](n2cc(Cn3cc(C(C)=O)c4ccccc43)nn2)[C@H](OC(C)=O)[C@@H](OC(C)=O)[C@@H]1OC(C)=O`, the IC50 is reported as > 200 µM. `CC(=O)OC[C@H]1O[C@@H](n2cc(Cn3cc([N+](=O)[O-])c4ccccc43)nn2)[C@H](OC(C)=O)[C@@H](OC(C)=O)[C@@H]1OC(C)=O` showed an IC50 of 93.2 µM. With `CC(=O)OC[C@H]1O[C@@H](n2cc(CN3C(=O)/C(=C/C=C/c4ccccc4)c4ccccc43)nn2)[C@H](OC(C)=O)[C@@H](OC(C)=O)[C@@H]1OC(C)=O` the IC50 was > 100 µM.

System: MCF7
Assay: Cytotoxicity against human MCF7 cells after 48 hrs by sulforhodamine B assay
Format: functional, cell-based
Settings: MCF7, 48 h
Compound `CC(=O)OC[C@H]1O[C@@H](n2cc(CN3C(=O)/C(=C/c4ccc5ccccc5c4)c4ccccc43)nn2)[C@H](OC(C)=O)[C@@H](OC(C)=O)[C@@H]1OC(C)=O` has an IC50 of 32.7 µM. In the case of `O=C(/C=C/c1c[nH]c2ccccc12)c1ccccc1`, the IC50 is reported as > 200 µM. `CCC/C=C1/C(=O)N(Cc2cn([C@@H]3O[C@H](COC(C)=O)[C@@H](OC(C)=O)[C@H](OC(C)=O)[C@H]3OC(C)=O)nn2)c2ccccc21` gave an IC50 of 22.6 µM. With `CC(=O)OC[C@H]1O[C@@H](n2cc(CN3C(=O)/C(=C\c4ccc(C)cc4)c4ccccc43)nn2)[C@H](OC(C)=O)[C@@H](OC(C)=O)[C@@H]1OC(C)=O` the IC50 was > 100 µM. `CC(=O)OC[C@H]1O[C@@H](n2cc(CN3C(=O)/C(=C\c4ccco4)c4ccccc43)nn2)[C@H](OC(C)=O)[C@@H](OC(C)=O)[C@@H]1OC(C)=O` showed an IC50 of 38.2 µM. For `CC(=O)OC[C@H]1O[C@@H](n2cc(Cn3cc(C(C)=O)c4ccccc43)nn2)[C@H](OC(C)=O)[C@@H](OC(C)=O)[C@@H]1OC(C)=O`, the IC50 was > 200 µM. With `CC(=O)OC[C@H]1O[C@@H](n2cc(Cn3cc([N+](=O)[O-])c4ccccc43)nn2)[C@H](OC(C)=O)[C@@H](OC(C)=O)[C@@H]1OC(C)=O` the IC50 was > 200 µM. With `CC(=O)OC[C@H]1O[C@@H](n2cc(CN3C(=O)/C(=C/C=C/c4ccccc4)c4ccccc43)nn2)[C@H](OC(C)=O)[C@@H](OC(C)=O)[C@@H]1OC(C)=O` the IC50 was 53.2 µM.

System: not listed separately
Assay: Cytotoxicity against mouse NIH/3T3 cells after 48 hrs by sulforhodamine B assay
Settings: NIH3T3, 48 h
Compound `CC(=O)OC[C@H]1O[C@@H](n2cc(CN3C(=O)/C(=C/c4ccc5ccccc5c4)c4ccccc43)nn2)[C@H](OC(C)=O)[C@@H](OC(C)=O)[C@@H]1OC(C)=O` has an IC50 of 28.4 µM. For `O=C(/C=C/c1c[nH]c2ccccc12)c1ccccc1`, the IC50 was > 200 µM. In the case of `CCC/C=C1/C(=O)N(Cc2cn([C@@H]3O[C@H](COC(C)=O)[C@@H](OC(C)=O)[C@H](OC(C)=O)[C@H]3OC(C)=O)nn2)c2ccccc21`, the IC50 is reported as > 100 µM. Compound `CC(=O)OC[C@H]1O[C@@H](n2cc(CN3C(=O)/C(=C\c4ccc(C)cc4)c4ccccc43)nn2)[C@H](OC(C)=O)[C@@H](OC(C)=O)[C@@H]1OC(C)=O` has an IC50 of 9 µM. `CC(=O)OC[C@H]1O[C@@H](n2cc(CN3C(=O)/C(=C\c4ccco4)c4ccccc43)nn2)[C@H](OC(C)=O)[C@@H](OC(C)=O)[C@@H]1OC(C)=O` gave an IC50 of 13.3 µM. With `CC(=O)OC[C@H]1O[C@@H](n2cc(Cn3cc(C(C)=O)c4ccccc43)nn2)[C@H](OC(C)=O)[C@@H](OC(C)=O)[C@@H]1OC(C)=O` the IC50 was > 200 µM. For `CC(=O)OC[C@H]1O[C@@H](n2cc(Cn3cc([N+](=O)[O-])c4ccccc43)nn2)[C@H](OC(C)=O)[C@@H](OC(C)=O)[C@@H]1OC(C)=O`, the IC50 was 20.5 µM. Work on `CC(=O)OC[C@H]1O[C@@H](n2cc(CN3C(=O)/C(=C/C=C/c4ccccc4)c4ccccc43)nn2)[C@H](OC(C)=O)[C@@H](OC(C)=O)[C@@H]1OC(C)=O` yielded an IC50 of 12.3 µM.

System: HeLa
Assay: Cytotoxicity against human HeLa cells after 48 hrs by sulforhodamine B assay
Format: functional, cell-based
Settings: not given
For `CC(=O)OC[C@H]1O[C@@H](n2cc(CN3C(=O)/C(=C/c4ccc5ccccc5c4)c4ccccc43)nn2)[C@H](OC(C)=O)[C@@H](OC(C)=O)[C@@H]1OC(C)=O`, the IC50 was > 100 µM. For `O=C(/C=C/c1c[nH]c2ccccc12)c1ccccc1`, the IC50 was > 200 µM. With `CCC/C=C1/C(=O)N(Cc2cn([C@@H]3O[C@H](COC(C)=O)[C@@H](OC(C)=O)[C@H](OC(C)=O)[C@H]3OC(C)=O)nn2)c2ccccc21` the IC50 was > 100 µM. With `CC(=O)OC[C@H]1O[C@@H](n2cc(CN3C(=O)/C(=C\c4ccc(C)cc4)c4ccccc43)nn2)[C@H](OC(C)=O)[C@@H](OC(C)=O)[C@@H]1OC(C)=O` the IC50 was > 100 µM. For `CC(=O)OC[C@H]1O[C@@H](n2cc(CN3C(=O)/C(=C\c4ccco4)c4ccccc43)nn2)[C@H](OC(C)=O)[C@@H](OC(C)=O)[C@@H]1OC(C)=O`, the IC50 was > 100 µM. In the case of `CC(=O)OC[C@H]1O[C@@H](n2cc(Cn3cc(C(C)=O)c4ccccc43)nn2)[C@H](OC(C)=O)[C@@H](OC(C)=O)[C@@H]1OC(C)=O`, the IC50 is reported as > 200 µM. With `CC(=O)OC[C@H]1O[C@@H](n2cc(Cn3cc([N+](=O)[O-])c4ccccc43)nn2)[C@H](OC(C)=O)[C@@H](OC(C)=O)[C@@H]1OC(C)=O` the IC50 was > 200 µM. In the case of `CC(=O)OC[C@H]1O[C@@H](n2cc(CN3C(=O)/C(=C/C=C/c4ccccc4)c4ccccc43)nn2)[C@H](OC(C)=O)[C@@H](OC(C)=O)[C@@H]1OC(C)=O`, the IC50 is reported as > 100 µM.
